Assay results reported in patent publication US9181181B2, “2-substituted-3-phenylpropionic acid derivatives and their use in the treatment of inflammatory bowel disease” (Albireo AB, priority 2007, dated 2015).

Experiments:
human PPARgamma = human PPARgamma (Homo sapiens (Human), UniProt P37231); assay: Transactivation (reporter gene) assay, GAL4-PPARgamma LBD in U-2 OS cells; format: cell-based; details: 40 h incubation, 16 μM Pioglitazone as 100% control, read-out: EC50 PPARγ
Protocol: (§1) Transactivation Assay Expression vectors were prepared by inserting the ligand binding domain cDNA (complementary DNA) of human PPARalpha (amino acid 168-468) and human PPARgamma (amino acid 205-505), 3′ to and in frame with, the yeast GAL4 transcription factor DNA binding domain and the nuclear localization signal from the T-antigen of Polyoma Virus into the mammalian expression vector pSGS (Stratagene). The resulting expression vectors pSGGAL-PPARalpha and pSGGAL-PPARgamma were used in co-transfection experiments together with a modified pGL3 promoter plasmid (Promega) containing five copies of the UAS GAL4 recognition site. 2.5 μg pSGGAL-PPARalpha or pSGGAL-PPARgamma were mixed with 25 μg pGL3p […] and 22.5 μg pBluescript (Stratagene) in 0.95 mL ice cold PBS containing between 9-12 million U-2 OS (human osteosarcoma) cells. The cell/DNA mixture was incubated on ice for 5 minutes and then divided between two 0.4 cm cuvettes and electroporated at 960 μF, 230 V using a BioRad electroporator. The two electroporation mixes were combined in assay medium [Dulbecco's Modified Eagle Medium w/o phenol red, (Gibco 11880-028) including 10% FBS (Foetal Bovine Serum), 1% PEST (Penicillin & Streptomycin), 20 mM Hepes, 2 mM L-Glutamine and 0.36% Glucose (Gibco 31966-021)] at 0.32 million cells/ml. 25 μl diluted, electroporated cells, were seeded into 384-well plates and allowed to adhere for 3-4 h at 37° C., 5% CO2 in a cell culture incubator. Test compounds in DMSO were diluted 40 fold in assay medium. 7 μl of diluted compound was added to the adhered electroporated cells and incubation was continued for 40 h in a cell culture incubator. Cells were lysed by adding 32 μl/well LucLite (Packard) and incubated at room temperature for 15 minutes. Luciferase activity was measured using a luminometry protocol on a Wallac Victor2 plate reader. 16 μM ETYA was used as the 100% control for humanPPARalpha activity and 16 μM Pioglitazone was used as the 100% control for humanPPARgamma activity. In Vivo Assay Determination of Plasma Clearance and Oral Bioavailability in Hamster or Mouse

human PPARalpha = human PPARalpha (Homo sapiens (Human), UniProt Q07869); assay: Transactivation (reporter gene) assay, GAL4-PPARalpha LBD in U-2 OS cells; format: cell-based; details: 40 h incubation, 16 μM ETYA as 100% control, read-out: EC50 PPARα
Protocol: as §1

human PPARgamma, sequence (P37231 205-505): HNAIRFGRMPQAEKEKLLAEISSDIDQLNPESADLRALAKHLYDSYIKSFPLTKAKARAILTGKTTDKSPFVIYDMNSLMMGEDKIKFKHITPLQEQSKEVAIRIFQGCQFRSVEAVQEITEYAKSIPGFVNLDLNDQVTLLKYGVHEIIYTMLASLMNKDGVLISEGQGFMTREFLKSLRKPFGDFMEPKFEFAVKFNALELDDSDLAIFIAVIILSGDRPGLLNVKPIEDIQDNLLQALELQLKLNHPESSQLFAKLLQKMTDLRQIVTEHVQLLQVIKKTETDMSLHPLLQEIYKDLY
human PPARalpha, sequence (Q07869 168-468): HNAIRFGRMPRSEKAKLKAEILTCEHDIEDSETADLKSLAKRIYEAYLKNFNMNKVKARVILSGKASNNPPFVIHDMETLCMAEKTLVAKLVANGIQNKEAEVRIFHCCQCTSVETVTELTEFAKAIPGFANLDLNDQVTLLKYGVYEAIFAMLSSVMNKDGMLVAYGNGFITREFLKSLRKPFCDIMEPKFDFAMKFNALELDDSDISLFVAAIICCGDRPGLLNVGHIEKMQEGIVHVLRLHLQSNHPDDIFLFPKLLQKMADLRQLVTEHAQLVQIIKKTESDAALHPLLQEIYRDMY

Compound	EC50 (human PPARgamma)	EC50 (human PPARalpha)
O=C(Cc1ccc(C(F)(F)F)cc1)OCc1ccc(SCc2ccccc2C(=O)O)cc1 [Example 29, 2-{4-[2-(4-Trifluoromethyl-phenyl)-acetoxymethyl]-phenylsulfanylmethyl}-benzoic acid]	0.76 µM	0.029 µM
O=C(Cc1ccc(SCc2ccccc2C(=O)O)cc1)OCc1ccc(C(F)(F)F)cc1 [Example 30, 2-[4-(4-Trifluoromethyl-benzyloxycarbonylmethyl)-phenylsulfanylmethyl]-benzoic acid]	1.7 µM	0.16 µM
CC(OC(=O)Cc1cccc(SCc2ccccc2C(=O)O)c1)c1ccc(C(F)(F)F)cc1 (stereo not drawn) [Example 31, 2-{3-[1-(4-Trifluoromethyl-phenyl)-ethoxycarbonylmethyl]phenylsulfanylmethyl}-benzoic acid]	3.5 µM	18 µM
O=C(Cc1cccc(SCc2ccccc2C(=O)O)c1)OCCc1ccc(C(F)(F)F)cc1 [Example 32, 2-{3-[2-(4-Trifluoromethyl-phenyl)-ethoxycarbonylmethyl]-phenylsulfanylmethyl}-benzoic acid]	3 µM	5.5 µM
Cc1cccc(C)c1COC(=O)Cc1ccc(SCc2ccccc2C(=O)O)cc1 [Example 33, 2-[4-(2,6-Dimethyl-benzyloxycarbonylmethyl)-phenylsulfanylmethyl]-benzoic acid]	18 µM	0.62 µM
C=CCC(OC(=O)Cc1ccc(SCc2ccccc2C(=O)O)cc1)c1ccccc1 (stereo not drawn) [Example 34, 2-[4-(1-Phenyl-but-3-enyloxycarbonylmethyl)-phenylsulfanylmethyl]-benzoic acid]	15 µM	18 µM
COC(=O)C(Cc1ccccc1)OC(=O)Cc1cccc(SCc2ccccc2C(=O)O)c1 (stereo not drawn) [Example 35, 2-[3-(1-Methoxycarbonyl-2-phenyl-ethoxycarbonylmethyl)-phenylsulfanylmethyl]-benzoic acid]	6 µM	22 µM
COc1ccc(CCOC(=O)Cc2ccc(SCc3ccccc3C(=O)O)cc2)cc1OC [Example 36, 2-{4-[2-(3,4-Dimethoxy-phenyl)-ethoxycarbonylmethyl]-phenylsulfanylmethyl}-benzoic acid]	7 µM	21 µM
COC(=O)C(Cc1ccccc1)OC(=O)Cc1ccc(SCc2ccccc2C(=O)O)cc1 (stereo not drawn) [Example 37, 2-[4-(1-Methoxycarbonyl-2-phenylethoxycarbonylmethyl)phenylsulfanylmethyl]-benzoic acid]	3.9 µM	2.2 µM
O=C(Cc1cccc(SCc2ccccc2C(=O)O)c1)OCCc1ccccc1C(F)(F)F [Example 38, 2-{3-[2-(2-Trifluoromethylphenyl)ethoxycarbonylmethyl]phenylsulfanylmethyl}-benzoic acid]	9 µM	3.8 µM
O=C(Cc1ccc(SCc2ccccc2C(=O)O)cc1)OCCc1ccccc1C(F)(F)F [Example 40, 2-{4-[2-(2-Trifluoromethylphenyl)ethoxycarbonylmethyl]phenylsulfanylmethyl}-benzoic acid]	8.2 µM	0.76 µM
Cc1cccc(C)c1COC(=O)Cc1cccc(SCc2ccccc2C(=O)O)c1 [Example 41, 2-[3-(2,6-Dimethyl-benzyloxycarbonylmethyl)-phenylsulfanylmethyl]-benzoic acid]	3.8 µM	15 µM
O=C(Cc1cccc(SCc2ccccc2C(=O)O)c1)OCc1ccc(-n2cccn2)cc1 [Example 42, 2-[3-(4-Pyrazol-1-yl-benzyloxycarbonylmethyl)-phenylsulfanylmethyl]-benzoic acid]	4.2 µM	18 µM
O=C(Cc1ccc(SCc2ccccc2C(=O)O)cc1)OCc1ccc(-n2cccn2)cc1 [Example 43, 2-[4-(4-Pyrazol-1-yl-benzyloxycarbonylmethyl)-phenylsulfanylmethyl]-benzoic acid]	4.2 µM	16 µM
COc1ccc(CCOC(=O)Cc2cccc(SCc3ccccc3C(=O)O)c2)cc1OC [Example 44, 2-{3-[2-(3,4-Dimethoxy-phenyl)-ethoxycarbonylmethyl]-phenylsulfanylmethyl}-benzoic acid]	11 µM	18 µM
